# Test results from PMC11091889, “Silver Organometallics that are Highly Potent Thioredoxin and Glutathione Reductase Inhibitors: Exploring the Correlations of Solution Chemistry with the Strong Antibacterial Effects” (ACS Infectious Diseases, 2024).
# Key:
# [1] = system: P. aeruginosa PA7 (DSM 24068); assay: microbe, parasite or virus in culture; format: cell-based, Pseudomonas aeruginosa; settings: n = 3, MHB; for MIC P. aeruginosa / EC50: mean ± standard error; for MIC P. aeruginosa / MIC P. aeruginosa (value in brackets): 22 h; for EC50: read-out: EC50 P. aeruginosa
# Procedure: (§1) The antibacterial effect of the silver NHC complexes and selected ligands was evaluated in two Gram-positive [Enterococcus faecium, methicillin resistant S. aureus, (MRSA)] and in four Gram-negative (Acinetobacter baumannii, Escherichia coli, Klebsiella pneumoniae, and Pseudomonas aeruginosa) pathogenic bacterial strains using broth microdilution assays. The resulting minimal inhibitory concentrations (MICs, Table 2) and EC50 (Table S6) were determined by a curve fitting procedure. Silver nitrate (AgNO3), SSD, and various antibiotics were used as references.
# (§2) The following strains of ESKAPE panel were utilized and maintained at 37 °C in MHB (21 g/L Müller Hinton broth, pH 7.4) or TSY (30 g/L trypticase soy broth, 3 g/L yeast extract, pH 7.0–7.2) media: A. baumannii (DSM 30007, ATCC 19606), E. coli (DSM1116, ATCC 9637), K. pneumoniae (DSM 11678, ATCC33495), P. aeruginosa PA7 (DSM 24068) in MHB; E. faecium (DSM 20477, ATCC 19434), and S. aureus MRSA (DSM 11822, ICB 25701) in TSY. MIC values were determined following a standardized protocol in broth microdilution assays. The compounds and reference substances (AgNO3 and SSD) were serially diluted from 64 to 1 μg/mL. Starting inocula of 2–8 × 10^5 CFU/mL in MHB or TSY media at 37 °C were used, and serial dilutions were carried out in 96-well microtiter plates in duplicate. After incubation of the plates for 22 h at 37 °C, the absorbance at 600 nm was measured using The Spark multimode microplate reader (Tecan Trading AG). The MIC values for the tested compounds were determined in three independent experiments and presented in μM with standard errors and also in μg/mL. Amikacin (P. aeruginosa), linezolid (S. aureus), and ciprofloxacin (all other strains) served as positive controls. The MIC and EC50 values were determined by curve fitting with Sigma Plot. To determine the effect of the culture medium on the activity of silver compounds, the assay was performed using MHB, TSY, or DMEM (Gibco). To observe the effect of individual components of TSY medium, antibacterial tests were performed using MHB with addition of tryptone (17 g/L) or yeast extract (3 g/L, both were purchased from Sigma).
# [2] = system: K. pneumoniae (DSM 11678, ATCC33495); assay: Broth microdilution antibacterial assay; format: cell-based, Klebsiella pneumoniae; settings: n = 3, MHB; for MIC K. pneumoniae / EC50: mean ± standard error; for MIC K. pneumoniae / MIC K. pneumoniae (value in brackets): 22 h; for EC50: read-out: EC50 K. pneumoniae
# Procedure: as §1, §2
# [3] = system: A. baumannii (DSM 30007, ATCC 19606); assay: Broth microdilution antibacterial assay; format: cell-based, Acinetobacter baumannii; settings: n = 3, MHB; for MIC A. baumannii / EC50: mean ± standard error; for MIC A. baumannii / MIC A. baumannii (value in brackets): 22 h; for EC50: read-out: EC50 A. baumannii
# Procedure: as §1, §2
# [4] = system: S. aureus MRSA (DSM 11822, ICB 25701); assay: microbe, parasite or virus in culture; format: cell-based, methicillin resistant S. aureus; settings: n = 3, TSY; for MIC MRSA / EC50: mean ± standard error; for MIC MRSA / MIC MRSA (value in brackets): 22 h; for EC50: read-out: EC50 MRSA
# Procedure: as §1
# The importance of the culture medium used in antibacterial assays has been pointed out for antibiotics and in particular for silver.[53]−[55] In our recent studies, tryptic soy yeast (TSY) broth has been used for growing Gram-positive bacteria. Two components thereof, tryptone and yeast extract, have been reported to affect the antibacterial activity of silver nitrate.[55] Moreover, such an effect was also observed for other media containing at least one of those components.[11],[53] […] Silver nitrate served as a reference, and three different growth media were studied, namely, Müller-Hinton Broth (MHB, commonly used for Gram-negative bacteria), TSY broth (commonly used for Gram-positive bacteria), and DMEM supplemented with 10% FCS (commonly used for growth of mammalian and human cells).
# as §2
# [5] = system: E. faecium (DSM 20477, ATCC 19434); assay: Broth microdilution antibacterial assay; format: cell-based, Enterococcus faecium; settings: n = 3, TSY; for MIC E. faecium / EC50: mean ± standard error; for MIC E. faecium / MIC E. faecium (value in brackets): 22 h; for EC50: read-out: EC50 E. faecium
# Procedure: as §1, §2
# [6] = system: E. coli (DSM1116, ATCC 9637); assay: microbe, parasite or virus in culture; format: cell-based, Escherichia coli; settings: n = 3, MHB; for EC50 / MIC E. coli: mean ± standard error; for MIC E. coli / MIC E. coli (value in brackets): 22 h
# Procedure: as §1, §2
# [7] = Conductometry: molar conductivity of silver complexes in DMSO; format: physicochemical; settings: 1.0 mM in DMSO, calculated as monocarbene (NHC)AgX
# Procedure: Since both the neutral monocarbene and the ionic biscarbene form of the complexes may exist in various proportions in the solution, conductometry studies were performed to reveal the dominant structure. The molar conductivity of 1.0 mM solutions of each complex in DMSO was determined after different periods up to 24 h using AgNO3 as 1:1 electrolyte reference (see Table 1). According to the literature, the expected range of molar conductivity for 1:1 electrolytes in DMSO is 35–90 S cm^2 mol^–1.[45],[46]
# Conductivity measurements were performed using an Apera Instruments EC9500 conductivity meter. Solutions (as indicated, otherwise 1.0 mM) of all compounds were prepared using freshly distilled DMSO with a specific electrical conductivity of ≤3 × 10^–8 S cm^–1. The conductivities were measured at 25 ± 2 °C immediately after complete dissolution and after 24 h.
# [8] = system: P. aeruginosa (PA 14) biofilm; assay: Inhibition of biofilm formation, crystal violet staining; format: cell-based, Pseudomonas aeruginosa; settings: for smallest active concentration for biofilm inhibition: concentration at which the % inhibition was found; for biofilm inhibition: ± SD, n = 4, at the respective smallest active concentration, 24 h
# Excerpt: Silver and its complexes can strongly affect the growth of biofilms.[56]−[58] In view of the promising activity against Gram-negative bacteria as mentioned above, we evaluated the inhibiting effect of the silver complexes on biofilm production by P. aeruginosa by a method based on crystal violet staining (Table 4 and Figure S14). Complexes 3a–c and 4a–c were selected for the test based on the results of solubility, stability, and antibacterial screening. […] The lower activity of 3c might be explained by its lower kinetic solubility in the aqueous environment (see Figure 4).
# The antibiofilm activity was determined according to a literature method.[73] A 1 mL aliquot of P. aeruginosa (PA 14) was taken from −20 °C stock, incubated in 25 mL LB medium (Luria–Bertani Broth) in a 250 mL flask, and kept at 37 °C at 100 rpm overnight. The optical density at 600 nm (OD600) of the culture solution was adjusted to match the turbidity of a 0.1 McFarland standard in M63 medium.[74] Selected compounds were mixed with 150 μL of bacterial solution in U-bottom 96 well plates to the final respective concentrations (25–0.2 μg/mL). The plates were further incubated at 37 °C for 24 h while shaking at 150 rpm. Afterward, the plates were rinsed once with 150 μL of PBS buffer, and the biofilms were stained using 150 μL of crystal violet (0.1%) staining at room temperature for 15 min and then rinsed once with PBS buffer. After rinsing, 150 μL of ethanol (95%) was added, and the absorbance was quantified using a plate reader (Synergy 2, BioTek, Santa Clara, USA) at 550 nm. The resulting antibiofilm activity is presented as percentage of inhibition at the respective smallest active concentration in μM with standard deviation (SD) of two repeats with duplicates. Myxovalargin A and DMSO (2.5%) were used as the positive and negative controls, respectively.
# Caco-2 cells = settings: read-out: Cytotoxicity IC50 Caco-2; 24 h, almost confluent cell layers, highest concentration 100 μM
# Procedure: Besides the antimicrobial effects, the toxic effects of silver ions have to be considered.[10],[12] As a primary evaluation of the cell toxicity triggered by silver NHC complexes, almost confluent cell layers of CaCo-2 cells were grown and challenged for 24 h with the silver complexes and also with the silver reference compounds AgNO3 and SSD (see Figure 6).
# Caco-2 cells were grown as almost confluent monolayers in 96-well plates. The complexes were dissolved in wells of 96-well plates as stock solutions in DMSO (0.2% v/v) diluted with DMEM cell culture medium, which was supplemented with 10% fetal calf serum and 50 mg/L gentamicin. The cell layers were incubated with the drug containing media for 24 h at 37 °C/5% CO2 in an incubator. The cell viability was determined using crystal violet (0.02%) staining and was calculated as percentage of an untreated control. Results were obtained in three independent experiments.
Structure (SMILES),MIC P. aeruginosa [1],EC50 [1],MIC P. aeruginosa (value in brackets) [1],MIC K. pneumoniae [2],EC50 [2],MIC K. pneumoniae (value in brackets) [2],MIC A. baumannii [3],EC50 [3],MIC A. baumannii (value in brackets) [3],MIC MRSA [4],EC50 [4],MIC MRSA (value in brackets) [4],MIC E. faecium [5],EC50 [5],MIC E. faecium (value in brackets) [5],EC50 [6],MIC E. coli [6],MIC E. coli (value in brackets) [6],Molar conductivity ΛM ([7]; 1 h after dissolution),Molar conductivity ΛM ([7]; 24 h after dissolution),other results
"COCCn1[c](=[Ag][Br])n(Cc2ccccn2)c2ccccc21 [4b, Bromido (1-(2-Methoxyethyl)-3-(pyridin-2-ylmethyl)-benzimidazol-2-ylidene) Silver(I)]",23.4 ± 5.9 µM,8.6 ± 1.1 µM,11 µg/mL,17.6 ± 0.0 µM,9.8 ± 1 µM,8 µg/mL,11.7 ± 2.9 µM,2.1 ± 0.1 µM,5 µg/mL,141 ± 0.0 µM,78.3 ± 2 µM,64 µg/mL,141 ± 0.0 µM,120 ± 0.8 µM,64 µg/mL,59.2 ± 4.3 µM,70.3 ± 0.0 µM,32 µg/mL,5.11 S cm^2 mol^–^1,5.08 S cm^2 mol^–^1,smallest active concentration for biofilm inhibition [8]: 6.8 µM; biofilm inhibition [8]: 70 ± 5%
"Cn1[c](=[Ag][I])n(Cc2ccccn2)c2ccccc21 [1c, Iodido (1-Methyl-3-(pyridin-2-ylmethyl)-benzimidazol-2-ylidene) Silver(I)]",14.6 ± 2.9 µM,5 ± 0.5 µM,7 µg/mL,5.1 ± 1.9 µM,2 ± 0.2 µM,2 µg/mL,8.7 ± 0.0 µM,4.1 ± 0.4 µM,4 µg/mL,> 140 µM,> 140 µM,> 64 µg/mL,> 140 µM,> 140 µM,> 64 µg/mL,6.4 ± 1.1 µM,11.6 ± 2.9 µM,5 µg/mL,7.82 S cm^2 mol^–^1,8.13 S cm^2 mol^–^1,IC50 (Caco-2 cells): > 100 µM
COCCn1[c]([Ag][Cl])[n+](Cc2ccccn2)c2ccccc21 [4a],26.0 ± 6.5 µM,9.6 ± 0.3 µM,11 µg/mL,9.74 ± 0.0 µM,5.2 ± 0.1 µM,4 µg/mL,16.2 ± 3.2 µM,1.9 ± 0.4 µM,7 µg/mL,156 ± 0.0 µM,85.7 ± 0.6 µM,64 µg/mL,156 ± 0.0 µM,123 ± 6.1 µM,64 µg/mL,31.1 ± 1.8 µM,39.0 ± 0.0 µM,16 µg/mL,3.38 S cm^2 mol^–^1,3.01 S cm^2 mol^–^1,smallest active concentration for biofilm inhibition [8]: 7.6 µM; biofilm inhibition [8]: 71 ± 3%
"CCn1[c](=[Ag][I])n(Cc2ccccn2)c2ccccc21 [2c, Iodido (1-Ethyl-3-(pyridin-2-ylmethyl)-benzimidazol-2-ylidene) Silver(I)]",45.2 ± 11.3 µM,14.2 ± 0.8 µM,21 µg/mL,11.3 ± 2.8 µM,5.9 ± 1.7 µM,5 µg/mL,8.5 ± 0.0 µM,2.9 ± 0.5 µM,4 µg/mL,> 136 µM,> 136 µM,> 64 µg/mL,> 136 µM,> 136 µM,> 64 µg/mL,12.8 ± 1.1 µM,16.9 ± 0.0 µM,8 µg/mL,6.98 S cm^2 mol^–^1,6.28 S cm^2 mol^–^1,IC50 (Caco-2 cells): > 100 µM
